Data published in US20250346605A1, “NEW DERIVATIVES FOR TREATING TRPM3 MEDIATED DISORDERS” (Katholieke Universiteit Leuven, priority 2022, published 2025).

Molecular target: T1, mouse TRPM3α2 (mTRPM3) ion channel (Mus musculus, UniProt J9SQF3)
T1 construct: expressed in transfected cells; host or cells: Flp-In HEK293
Assay: TRPM3 ion channel driven Ca2+ uptake (Fluo-4 AM assay), PS-stimulated overexpressing HEK293 cells
Assay type: cell-based
Settings: flip-in HEK293 overexpressing TRPM3, stimulated with Pregnenolone sulfate (PS) 50 μM, activity ranges A, B, C
Procedure: In order to monitor the inhibition of the mouse TRPM3α2 (mTRPM3) ion channel by the compounds of the invention, a cellular system making use of an mTRPM3alpha2 or hTRPM3 overexpressing cell line (flip-in HEK293) was used. The TRPM3 channel was stimulated/opened with Pregnenolone sulfate (PS) (50 μM) which results in Ca^2+ influx.
For mTRPM3, the intracellular Ca^2+ was measured with a Calcium responsive dye, Fluor-4 AMV ester (Invitrogen). Cells were cultured until a confluence of 80-90%, washed with Versene (Invitrogen) and detached from the surface by a short incubation with 0.05% Trypsin (Invitrogen). The trypsination process was stopped by the addition of complete cell culture medium (DMEM, glutamax, 10% FCS, NEAA, Pen-Strep). Cells were collected and resuspended in Krebs buffer without Calcium at RT.
Prior the cell seeding (±2000 cells/well into a black, 384 well plate (Greiner)) the diluted compound was added in the assay plate, together with the PS dissolved in Krebs buffer containing Calcium. […] Directly after cell addition the plates were read on an Envision fluorescence reader (Perkin Elmer) by an Excitation of 485 nm and emission at 535 nm.
Channel inhibition was calculated compared to a non-PS stimulated control versus a condition stimulated with PS (50 μM) with vehicle. The ability of the compounds of the invention to inhibit this activity was determined as: Percentage inhibition=[1-((RFU determined for sample with test compound present−RFU determined for sample with positive control inhibitor) divided by (RFU determined in the presence of vehicle−RFU determined for sample with positive control inhibitor))]*100.
The activities of the Example compounds tested are depicted in the table below. The activity ranges A, B and C refer to IC50 values in the Fluo-4 AM assay as follows: “A”: IC50<1 μM; “B”: 1 μM≤IC50≤20 μM and “C”: IC50>20 μM

T1 sequence (J9SQF3 1-1709 isoform J9SQF3-12): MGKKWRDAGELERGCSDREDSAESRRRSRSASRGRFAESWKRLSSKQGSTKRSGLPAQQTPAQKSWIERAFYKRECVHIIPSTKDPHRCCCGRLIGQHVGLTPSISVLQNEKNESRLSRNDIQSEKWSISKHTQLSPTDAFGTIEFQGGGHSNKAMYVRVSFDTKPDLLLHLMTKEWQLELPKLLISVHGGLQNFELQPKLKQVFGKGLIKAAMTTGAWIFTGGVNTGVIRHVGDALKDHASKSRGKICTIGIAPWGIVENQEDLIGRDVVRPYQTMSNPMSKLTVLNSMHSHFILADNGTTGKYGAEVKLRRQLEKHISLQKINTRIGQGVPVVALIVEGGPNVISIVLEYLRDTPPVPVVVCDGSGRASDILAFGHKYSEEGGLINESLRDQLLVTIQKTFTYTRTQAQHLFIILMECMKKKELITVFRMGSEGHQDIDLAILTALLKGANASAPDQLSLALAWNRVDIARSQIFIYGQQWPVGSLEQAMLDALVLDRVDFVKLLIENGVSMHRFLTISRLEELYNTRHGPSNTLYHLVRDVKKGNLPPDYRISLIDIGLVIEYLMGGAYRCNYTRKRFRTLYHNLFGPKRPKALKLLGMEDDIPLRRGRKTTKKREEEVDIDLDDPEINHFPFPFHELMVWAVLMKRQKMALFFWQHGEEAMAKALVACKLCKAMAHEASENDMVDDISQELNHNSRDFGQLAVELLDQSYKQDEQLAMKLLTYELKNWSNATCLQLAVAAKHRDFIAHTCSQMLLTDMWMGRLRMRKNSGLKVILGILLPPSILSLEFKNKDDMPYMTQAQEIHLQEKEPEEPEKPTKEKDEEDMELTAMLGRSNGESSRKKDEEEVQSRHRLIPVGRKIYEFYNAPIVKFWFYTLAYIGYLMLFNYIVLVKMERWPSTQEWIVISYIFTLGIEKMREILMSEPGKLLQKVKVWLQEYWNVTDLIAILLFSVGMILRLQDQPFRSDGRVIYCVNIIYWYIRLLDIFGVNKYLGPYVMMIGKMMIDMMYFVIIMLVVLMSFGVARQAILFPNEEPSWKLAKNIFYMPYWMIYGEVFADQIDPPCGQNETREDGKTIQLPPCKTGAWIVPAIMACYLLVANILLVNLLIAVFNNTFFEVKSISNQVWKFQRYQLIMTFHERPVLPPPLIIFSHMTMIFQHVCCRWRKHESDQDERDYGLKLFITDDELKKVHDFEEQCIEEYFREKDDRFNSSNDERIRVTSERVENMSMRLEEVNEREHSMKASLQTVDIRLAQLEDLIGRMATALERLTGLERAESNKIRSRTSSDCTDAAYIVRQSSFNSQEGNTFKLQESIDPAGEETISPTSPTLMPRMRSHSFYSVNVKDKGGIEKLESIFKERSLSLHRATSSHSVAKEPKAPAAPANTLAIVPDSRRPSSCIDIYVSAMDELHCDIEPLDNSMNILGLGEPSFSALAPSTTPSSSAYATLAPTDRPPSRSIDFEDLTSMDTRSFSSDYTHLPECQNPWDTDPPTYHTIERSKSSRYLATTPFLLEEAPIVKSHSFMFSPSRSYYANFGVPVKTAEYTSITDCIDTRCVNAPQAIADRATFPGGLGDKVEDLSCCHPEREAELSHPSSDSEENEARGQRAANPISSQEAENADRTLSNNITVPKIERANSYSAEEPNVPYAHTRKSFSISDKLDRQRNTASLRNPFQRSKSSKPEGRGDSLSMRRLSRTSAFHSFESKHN

IC50 [µM]	Compound
1 to 20	Cc1ncsc1COc1cc2c(C(=O)NC3(CO)CCOCC3)c(C)oc2cn1 [Cpd 035, N-[4-(hydroxymethyl)oxan-4-yl]-2-methyl-5-[(4-methyl-1,3-thiazol-5-yl)methoxy]furo[2,3-c]pyridine-3-carboxamide]
1 to 20	Cc1oc2cnc(OCc3ccccn3)cc2c1C(=O)NC1CCN(CCO)C1=O (stereo not shown) [Cpd 027, N-[1-(2-hydroxyethyl)-2-oxopyrrolidin-3-yl]-2-methyl-5-[(pyridin-2-yl)methoxy]furo[2,3-c]pyridine-3-carboxamide]
1 to 20	Cc1oc2cnc(OCc3cccnc3C(F)(F)F)cc2c1C(=O)N[C@H]1CCNCC1(F)F [Cpd 026, N-[(4S)-3,3-difluoropiperidin-4-yl]-2-methyl-5-{[2-(trifluoromethyl)pyridin-3-yl]methoxy}furo[2,3-c]pyridine-3-carboxamide]
1 to 20	Cc1oc2cnc(OCCc3ccccc3)cc2c1C(=O)NC1CNCC1(F)F (stereo not shown) [Cpd 022-En1, N-(4,4-difluoropyrrolidin-3-yl)-2-methyl-5-(2-phenylethoxy)furo[2,3-c]pyridine-3-carboxamide]
1 to 20	Cc1ncsc1COc1cc2c(C(=O)NC3(CO)COC3)c(C)oc2cn1 [Cpd 033, N-[3-(hydroxymethyl)oxetan-3-yl]-2-methyl-5-[(4-methyl-1,3-thiazol-5-yl)methoxy]furo[2,3-c]pyridine-3-carboxamide]
< 1	Cc1ncsc1COc1cc2c(C(=O)NC3CNCC3(F)F)c(C)oc2cn1 (single isomer, unassigned) [Cpd 021-En1, N-(4,4-difluoropyrrolidin-3-yl)-2-methyl-5-[(4-methyl-1,3-thiazol-5-yl)methoxy]furo[2,3-c]pyridine-3-carboxamide]

The remaining lines, values behind:

Compound	IC50 [µM]
Cc1ncsc1COc1cc2c(C(=O)NC(C)(C)C(N)=O)c(C)oc2cn1 [Cpd 011, 2-methyl-2-({2-methyl-5-[(4-methyl-1,3-thiazol-5-yl)methoxy]furo[2,3-c]pyridin-3-yl}formamido)propanamide]	1 to 20
Cc1oc2cnc(OCc3ccccc3F)cc2c1C(=O)NC(CO)C(N)=O (single isomer, unassigned) [Cpd 008-En1, 2-({5-[(2-fluorophenyl)methoxy]-2-methylfuro[2,3-c]pyridin-3-yl}formamido)-3-hydroxypropanamide]	1 to 20
Cc1oc2cnc(OCc3ccccc3F)cc2c1C(=O)NC1CCN(CCO)C1=O (single isomer, unassigned) [Cpd 017-En2, 5-[(2-fluorophenyl)methoxy]-N-[1-(2-hydroxyethyl)-2-oxopyrrolidin-3-yl]-2-methylfuro[2,3-c]pyridine-3-carboxamide]	1 to 20
Cc1oc2cnc(OCc3ccccn3)cc2c1C(=O)NC(CO)C(N)=O (single isomer, unassigned) [Cpd 014-En2, 3-hydroxy-2-({2-methyl-5-[(pyridin-2-yl)methoxy]furo[2,3-c]pyridin-3-yl}formamido)propanamide]	< 1
Cc1oc2cnc(OCc3ccccn3)cc2c1C(=O)NC(C)C(N)=O (single isomer, unassigned) [Cpd 006 _ En1, 2-({2-methyl-5-[(pyridin-2-yl)methoxy]furo[2,3-c]pyridin-3-yl}formamido)propanamide]	1 to 20
Cc1ncsc1COc1cc2c(C(=O)NC(C)C(N)=O)c(C)oc2cn1 (single isomer, unassigned) [Cpd 005-En2, 2-({2-methyl-5-[(4-methyl-1,3-thiazol-5-yl)methoxy]furo[2,3-c]pyridin-3-yl}formamido)propanamide]	> 20
Cc1ncsc1COc1cc2c(C(=O)NC(C)C(N)=O)c(C)oc2cn1 (single isomer, unassigned) [Cpd 005-En1, 2-({2-methyl-5-[(4-methyl-1,3-thiazol-5-yl)methoxy]furo[2,3-c]pyridin-3-yl}formamido)propanamide]	1 to 20
